{"source": "patent US10112968B2", "about": "“Inhibitors of protein methyltransferase DOT1L and methods of use thereof” (Epizyme, Inc., priority 2012, dated 2018)", "key": {"[1]": {"assay": "Pharmacokinetic half-life in systemic circulation, dogs", "type": "in vivo"}, "[2]": {"test_system": "leukemia cell lines without the chromosomal rearrangement of the MLL gene", "assay": "Antiproliferative effect on leukemia cell lines without MLL rearrangement", "type": "cell-based"}, "MV4-11 xenograft tumors": {"test_system": "MV4-11 xenograft tumors", "assay": "MV4-11 nude rat subcutaneous xenograft model of MLL-rearranged leukemia", "type": "in vivo", "protocol": "Four groups of 10 (Groups 1, 2, 3, and 4 female RH nu/nu rats (7 weeks old, weighing 120-160 g) bearing MV4-11 xenograft tumors of sizes ranging from 300-600 mm^3 were implanted with a catheter in the femoral vein). The infusion flow rate was set at 1,500 μL/hour/kg and was adjusted to the most recent mean body weight of each treatment group (as an example, the infusion flow rate was 300 μL/hour for a group of rats having a mean body weight of 200 g). Group 1 received vehicle via a 21-day continuous IV infusion. Group 2 received 21-day continuous IV infusion of the test substance at 35 mg/kg/day. Group 3 received a daily 8-hour continuous IV infusion of the test substance at 67 mg/kg/day for 21 consecutive days. Between two IV infusions of the test substance, the rats were kept under IV infusion with NaCl 0.9% solution. Group 4 received a 21-day continuous IV infusion of the test substance at 70 mg/kg/day. Syringes used for the IV infusion were replaced every day.\nThe rats were terminated when the subcutaneous tumor reached a maximum volume of 9,000 mm^3 or at a maximum of 55 days after tumor cells injection."}, "H3K79 methylation": {"test_system": "H3K79 methylation", "assay": "H3K79 methylation in treated leukemia cells", "type": "cell-based", "settings": "treatment of leukemia cells"}, "[3]": {"assay": "Pharmacokinetic half-life in systemic circulation, rats", "type": "in vivo"}, "[4]": {"test_system": "MLL-rearranged leukemia cells", "assay": "Cell killing in MLL-rearranged leukemia cells", "type": "cell-based"}, "[5]": {"test_system": "other histone methyl marks", "assay": "Effect on other histone methyl marks in cells", "type": "cell-based"}, "DOT1L [6]": {"target": "T1, DOT1L (Homo sapiens (Human), UniProt Q8TEK3)", "T1 sequence (Q8TEK3 whole entry)": "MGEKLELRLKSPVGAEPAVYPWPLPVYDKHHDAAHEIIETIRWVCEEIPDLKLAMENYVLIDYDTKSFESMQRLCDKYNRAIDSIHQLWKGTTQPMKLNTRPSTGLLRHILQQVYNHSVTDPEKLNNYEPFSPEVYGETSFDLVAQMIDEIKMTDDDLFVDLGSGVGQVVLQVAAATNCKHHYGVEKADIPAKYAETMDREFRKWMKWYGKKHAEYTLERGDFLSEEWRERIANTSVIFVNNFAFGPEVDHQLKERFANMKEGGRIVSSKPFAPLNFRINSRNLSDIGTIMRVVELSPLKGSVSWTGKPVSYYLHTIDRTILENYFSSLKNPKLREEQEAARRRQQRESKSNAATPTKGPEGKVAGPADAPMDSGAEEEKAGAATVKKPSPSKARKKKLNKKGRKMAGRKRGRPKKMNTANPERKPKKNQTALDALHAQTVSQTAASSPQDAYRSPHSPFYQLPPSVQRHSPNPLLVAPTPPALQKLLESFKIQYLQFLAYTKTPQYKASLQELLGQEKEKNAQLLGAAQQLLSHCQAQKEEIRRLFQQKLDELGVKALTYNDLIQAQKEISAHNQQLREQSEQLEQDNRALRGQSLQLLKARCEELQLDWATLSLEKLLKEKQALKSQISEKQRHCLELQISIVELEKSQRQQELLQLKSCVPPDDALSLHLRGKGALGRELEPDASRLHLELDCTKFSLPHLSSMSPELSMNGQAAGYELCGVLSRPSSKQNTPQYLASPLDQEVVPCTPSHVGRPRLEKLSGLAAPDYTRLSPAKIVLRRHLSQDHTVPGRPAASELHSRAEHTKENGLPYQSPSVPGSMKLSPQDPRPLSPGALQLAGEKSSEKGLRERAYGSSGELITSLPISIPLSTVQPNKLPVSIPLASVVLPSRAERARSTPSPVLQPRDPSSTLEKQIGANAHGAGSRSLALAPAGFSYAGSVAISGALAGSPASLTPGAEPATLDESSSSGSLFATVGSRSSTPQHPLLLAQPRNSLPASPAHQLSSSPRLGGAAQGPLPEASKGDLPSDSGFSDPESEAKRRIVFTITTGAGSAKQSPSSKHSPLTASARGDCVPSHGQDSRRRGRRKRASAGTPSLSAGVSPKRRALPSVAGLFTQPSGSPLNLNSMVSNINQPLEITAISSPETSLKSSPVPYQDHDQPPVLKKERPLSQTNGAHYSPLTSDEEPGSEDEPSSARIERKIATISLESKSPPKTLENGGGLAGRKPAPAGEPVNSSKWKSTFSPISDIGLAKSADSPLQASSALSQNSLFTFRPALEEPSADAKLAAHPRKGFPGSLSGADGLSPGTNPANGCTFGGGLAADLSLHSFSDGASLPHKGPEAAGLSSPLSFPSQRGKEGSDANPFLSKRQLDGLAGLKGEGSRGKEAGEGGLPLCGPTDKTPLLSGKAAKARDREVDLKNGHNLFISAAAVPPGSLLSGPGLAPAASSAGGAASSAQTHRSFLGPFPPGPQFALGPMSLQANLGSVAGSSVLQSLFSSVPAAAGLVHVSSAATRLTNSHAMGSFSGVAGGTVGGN", "assay": "DOT1L enzymatic activity radiometric assay (methyl transfer from SAM to chicken erythrocyte nucleosomes)", "settings": "for IC50: read-out: DOT1L IC50; for alpha: global fit"}, "[7]": {"test_system": "HOXA9 mRNA in MV4-11 cells", "assay": "Quantitative real-time PCR analysis of HOXA9 message", "settings": "Homo sapiens, MV4-11, 144 h, read-out: Cellular IC50 HOXA9 mRNA"}, "H3K79me2 in MV4-11 cells": {"test_system": "H3K79me2 in MV4-11 cells", "assay": "H3K79me2 quantitative ELISA", "settings": "Homo sapiens, MV4-11, 96 h, read-out: Cellular IC50 H3K79 Methylation"}, "MV4-11 cells": {"test_system": "MV4-11 cells", "assay": "Cell proliferation assay (Guava Viacount, 14 days)", "type": "cell-based", "settings": "Homo sapiens, 336 h, day 14, read-out: Cellular IC50 Proliferation"}, "DOT1L [8]": {"target": "T1, DOT1L", "assay": "Ligand association and dissociation rate constants by surface plasmon resonance (SPR)", "type": "binding", "settings": "Kd calculated as koff/kon"}, "MLL-rearranged leukemia": {"test_system": "MLL-rearranged leukemia", "assay": "Aggressive, disseminated mouse model of MLL-rearranged leukemia", "type": "in vivo", "settings": "as previously described"}}, "note": "Entries after “also recorded” stand apart in the source; their conditions may differ.", "data": [{"smiles": "CC(C)N(C[C@H]1O[C@@H](n2cnc3c(N)ncnc32)[C@H](O)[C@@H]1O)[C@H]1C[C@@H](CCc2nc3cc(C(C)(C)C)ccc3[nH]2)C1", "note": "[Compound A2, (2R,3R,4S,5R)-2-(6-amino-9H-purin-9-yl)-5-((((1r,3S)-3-(2-(5-(tert-butyl)-1H-benzo[d]imidazol-2-yl)ethyl)cyclobutyl)(isopropyl)amino)methyl)tetrahydrofuran-3,4-diol]", "values": [{"measurement": "effective pharmacokinetic half-life in systemic circulation", "setting": "[1]", "value": 90, "unit": "min"}, {"measurement": "impact on non-rearranged cells", "setting": "[2]", "value": "minimal impact"}, {"measurement": "anti-tumor activity", "setting": "MV4-11 xenograft tumors; continuous intravenous infusion for 21 days, FIG. 1", "value": "dose-dependent anti-tumor activity; also recorded: complete and sustained tumor regression"}, {"measurement": "time with no regrowth after the cessation of treatment", "setting": "MV4-11 xenograft tumors; highest dose (70 mg/kg/day)", "value": "up to 32 days"}, {"measurement": "tumor regressions", "setting": "MV4-11 xenograft tumors; highest dose (70 mg/kg/day), 21-day continuous IV infusion", "value": "complete tumor regressions"}, {"measurement": "weight loss or toxicity during efficacy study", "setting": "MV4-11 xenograft tumors; rats", "value": "No significant weight loss or obvious toxicity"}, {"measurement": "H3K79 methylation", "setting": "H3K79 methylation", "value": "concentration- and time-dependent diminution"}, {"measurement": "effective pharmacokinetic half-life in systemic circulation", "setting": "[3]", "value": 15, "unit": "min"}, {"measurement": "cell killing", "setting": "[4]", "value": "selective, apoptotic cell killing"}, {"measurement": "effect on other histone methyl marks / methylation status of other histone sites", "setting": "[5]", "value": "without effect"}]}, {"smiles": "CC(C)N(C[C@H]1O[C@@H](n2cnc3c(N)ncnc32)[C@H](O)[C@@H]1O)[C@H]1C[C@@H](CCc2nc3cc(Cl)c(C(F)(F)F)cc3[nH]2)C1", "note": "[Compound A5, (2R,3R,4S,5R)-2-(6-amino-9H-purin-9-yl)-5-((((1r,3S)-3-(2-(5-chloro-6-(trifluoromethyl)-1H-benzo[d]imidazol-2-yl)ethyl)cyclobutyl)(isopropyl)amino)methyl)tetrahydrofuran-3,4-diol]", "values": [{"measurement": "IC50", "setting": "DOT1L [6]", "value": 0.59, "unit": "nM"}]}, {"smiles": "CC(C)N(C[C@H]1O[C@@H](n2ccc3c(N)ncnc32)[C@H](O)[C@@H]1O)[C@H]1C[C@H](CCc2nc3cc(C(C)(C)C)ccc3[nH]2)C1", "note": "[Compound A75, (2R,3R,4S,5R)-2-(4-amino-7H-pyrrolo[2,3-d]pyrimidin-7-yl)-5-((((1s,3R)-3-(2-(5-(tert-butyl)-1H-benzo[d]imidazol-2-yl)ethyl)cyclobutyl)(isopropyl)amino)methyl)tetrahydrofuran-3,4-diol]", "values": [{"measurement": "IC50", "setting": "DOT1L [6]", "value": 0.59, "unit": "nM"}]}, {"smiles": "CN(C[C@H]1O[C@@H](n2ccc3c(N)ncnc32)[C@H](O)[C@@H]1O)[C@H]1C[C@@H](CCc2nc3cc(C(C)(C)C)ccc3[nH]2)C1", "note": "[Compound A86, (2R,3R,4S,5R)-2-(4-amino-7H-pyrrolo[2,3-d]pyrimidin-7-yl)-5-((((1r,3S)-3-(2-(5-(tert-butyl)-1H-benzo[d]imidazol-2-yl)ethyl)cyclobutyl)(methyl)amino)methyl)tetrahydrofuran-3,4-diol]", "values": [{"measurement": "IC50", "setting": "DOT1L [6]", "value": 0.62, "unit": "nM"}]}, {"smiles": "CC(C)N(C[C@H]1O[C@@H](n2ccc3c(N)ncnc32)[C@H](O)[C@@H]1O)[C@H]1C[C@@H](CCc2nc3cc(OC(F)(F)F)ccc3[nH]2)C1", "note": "[Compound A87, (2R,3R,4S,5R)-2-(4-amino-7H-pyrrolo[2,3-d]pyrimidin-7-yl)-5-((isopropyl((1r,3S)-3-(2-(5-(trifluoromethoxy)-1H-benzo[d]imidazol-2-yl)ethyl)cyclobutyl)amino)methyl)tetrahydrofuran-3,4-diol]", "values": [{"measurement": "IC50", "setting": "DOT1L [6]", "value": 0.8, "unit": "nM"}]}, {"smiles": "CN(CCNC(=O)OCC1c2ccccc2-c2ccccc21)C[C@H]1OC(n2cnc3c(N)ncnc32)[C@H](O)[C@@H]1O", "note": "(some centres unmarked) [Compound C64]", "values": [{"measurement": "Ki", "setting": "DOT1L [6]", "value": 20000, "unit": "nM"}]}, {"smiles": "CN(CCNC(=O)Nc1ccc(C(C)(C)C)cc1)C[C@H]1O[C@@H](n2cnc3c(N)ncnc32)[C@H](O)[C@@H]1O", "note": "[Compound C94]", "values": [{"measurement": "IC50", "setting": "[7]", "value": "> 50000", "unit": "nM"}, {"measurement": "IC50", "setting": "H3K79me2 in MV4-11 cells", "value": "28000 ± 25000", "unit": "nM"}, {"measurement": "IC50", "setting": "MV4-11 cells", "value": "> 50000", "unit": "nM"}, {"measurement": "Ki", "setting": "DOT1L [6]", "value": 845, "unit": "nM"}, {"measurement": "Kd", "setting": "DOT1L [8]", "value": "167 ± 100", "unit": "nM"}]}, {"smiles": "CC(C)N(CCCNC(=O)Nc1ccc(C(C)(C)C)cc1)C[C@H]1OC(n2ccc3c(N)ncnc32)C(O)[C@@H]1O", "note": "(some centres unmarked) [Compound D16]", "values": [{"measurement": "IC50", "setting": "[7]", "value": "830 ± 170", "unit": "nM"}, {"measurement": "IC50", "setting": "H3K79me2 in MV4-11 cells", "value": "5 ± 3", "unit": "nM"}, {"measurement": "survival", "setting": "MLL-rearranged leukemia", "value": "statistically significant survival advantage"}, {"measurement": "IC50", "setting": "MV4-11 cells", "value": "146 ± 72", "unit": "nM"}, {"measurement": "inhibition modality with respect to SAM", "setting": "DOT1L [6]", "value": "competitive inhibitor"}, {"measurement": "inhibition modality with respect to nucleosome", "setting": "DOT1L [6]", "value": "noncompetitive inhibitor"}, {"measurement": "alpha", "setting": "DOT1L [6]; FIG. 2A, varied SAM concentration", "value": "10±6"}, {"measurement": "alpha", "setting": "DOT1L [6]; FIG. 2B, varied oligonucleosome concentration", "value": "0.5±0.2"}, {"measurement": "ΔΔGbinding", "setting": "DOT1L [6]; between C118 and D16, at 25° C.", "value": "2.4 to 2.9", "unit": "kcal/mol"}]}]}
